US8952024B2, “Herbicidal pyrimidone derivatives” (E I du Pont de Nemours and Company, priority 2009, dated 2015)

Columns and labels:
Assay type in all cases: in vivo
[1] = system: barnyardgrass (Echinochloa crus-galli); experiment: Test A pre-/postemergence plant response
Description: (§1) Seeds of barnyardgrass (Echinochloa crus-galli), large crabgrass (Digitaria sanguinalis), giant foxtail (Setaria faberii), morningglory (Ipomoea spp.), pigweed (Amaranthus retroflexus), velvetleaf (Abutilon theophrasti), wheat (Triticum aestivum) and corn (Zea mays) were planted into a blend of loam soil and sand and treated preemergence with a directed soil spray using test chemicals formulated in a non-phytotoxic solvent mixture which included a surfactant. At the same time these species were also treated with postemergence applications of test compounds formulated in the same manner.
(§2) Plants ranged in height from two to ten cm and were in the one- to two-leaf stage for the postemergence treatment. Treated plants and untreated controls were maintained in a greenhouse for approximately ten days, after which time all treated plants were compared to untreated controls and visually evaluated for injury. Plant response ratings, summarized in Table A, are based on a 0 to 100 scale where 0 is no effect and 100 is complete control. A dash (-) response means no test result.

[2] = system: corn (Zea mays); experiment: Test A pre-/postemergence plant response
Description: as §1, §2

[3] = system: giant foxtail (Setaria faberii); experiment: Test A pre-/postemergence plant response
Description: as §1, §2

[4] = system: large crabgrass (Digitaria sanguinalis); experiment: Test A pre-/postemergence plant response
Description: as §1, §2

[5] = system: morningglory (Ipomoea spp.); experiment: Test A pre-/postemergence plant response
Description: as §1, §2

[6] = system: pigweed (Amaranthus retroflexus); experiment: Test A pre-/postemergence plant response
Description: as §1, §2

[7] = system: velvetleaf (Abutilon theophrasti); experiment: Test A pre-/postemergence plant response
Description: as §1, §2

[8] = system: wheat (Triticum aestivum); experiment: Test A pre-/postemergence plant response
Description: as §1, §2

[9] = system: barnyardgrass (Echinochloa crus-galli); experiment: Test B flooded paddy test; conditions: for Plant response rating, Barnyardgrass: Flood (flooded paddy test), 13 to 15 days
Description: (§3) Plant species in the flooded paddy test consisted of rice (Oryza sativa), umbrella sedge (Cyperus difformis), ducksalad (Heteranthera limosa) and barnyardgrass (Echinochloa crus-galli) grown to the 2-leaf stage for testing. At the time of treatment, test pots were flooded with water to 3 cm above the soil surface, treated by application of test compounds directly to the paddy water, and then maintained at that water depth for the duration of the test.
(§4) Treated plants and controls were maintained in a greenhouse for 13 to 15 days, after which time all treated plants were visually evaluated and compared to controls. Plant response ratings, summarized in Table B, are based on a scale of 0 to 100 where 0 is no effect and 100 is complete control. A dash (-) response means no test result.

[10] = system: ducksalad (Heteranthera limosa); experiment: Test B flooded paddy test; conditions: for Plant response rating, Ducksalad: Flood (flooded paddy test), 13 to 15 days
Description: as §3, §4

[11] = system: rice (Oryza sativa); experiment: Test B flooded paddy test; conditions: for Plant response rating, Rice: Flood (flooded paddy test), 13 to 15 days
Description: as §3, §4

[12] = system: umbrella sedge (Cyperus difformis); experiment: Test B flooded paddy test; conditions: for Plant response rating, Sedge, Umbrella: Flood (flooded paddy test), 13 to 15 days
Description: as §3, §4

[13] = Postemergence, 125 g ai/ha, 0 to 100 scale where 0 is no effect and 100 is complete control
[14] = Postemergence, 500 g ai/ha, visual injury, 0 to 100 scale (0 no effect, 100 complete control), approx. ten days
[15] = Preemergence, 125 g ai/ha, 0 to 100 scale, 0 = no effect, 100 = complete control
[16] = Preemergence, 500 g ai/ha, 0 to 100 scale, 0 = no effect, 100 = complete control
[17] = 125 g ai/ha, scale 0 to 100, 0 is no effect, 100 is complete control
[18] = Flood, 31 g ai/ha, scale 0 to 100 (0 no effect, 100 complete control)
[19] = Postemergence, 125 g ai/ha, visual injury, 0 to 100 scale (0 no effect, 100 complete control), approx. ten days
[20] = Postemergence, 500 g ai/ha, 0 to 100 scale, 0 = no effect, 100 = complete control, approx. ten days
[21] = Preemergence, 500 g ai/ha, visual injury, 0 to 100 scale (0 no effect, 100 complete control), approx. ten days
[22] = 250 g ai/ha, flooded paddy test, visual rating on 0 to 100 scale (0 no effect, 100 complete control) after 13 to 15 days
[23] = 31 g ai/ha, scale of 0 to 100 where 0 is no effect and 100 is complete control
[24] = 62 g ai/ha, scale 0 to 100, 0 is no effect, 100 is complete control

O=C1CCCC(O)=C1C(=O)c1cnc(-c2ccccc2)n(C2CC[S+]([O-])CC2)c1=O (mixture of isomers) [Compound 168, 5-[(2-hydroxy-6-oxo-1-cyclohexen-1-yl)carbonyl]-2-phenyl-3-(cis/trans-tetrahydro-1-oxido-2H-thiopyran-4-yl)-4(3H)-pyrimidinone]
Plant response rating, Barnyardgrass [1, 13]: 30
Barnyardgrass plant response rating [1, 14]: 100
Plant response rating, Barnyardgrass [1, 15]: 0
Plant response rating, Barnyardgrass [1, 16]: 20
Plant response rating, Corn [2, 13]: 20
Corn plant response rating [2, 14]: 30
Plant response rating, Corn [2, 15]: 0
Plant response rating, Corn [2, 16]: 0
Plant response rating, Foxtail, Giant [3, 13]: 50
Foxtail, Giant plant response rating [3, 14]: 90
Plant response rating, Foxtail, Giant [3, 15]: 10
Plant response rating, Foxtail, Giant [3, 16]: 70
Plant response rating, Crabgrass, Large [4, 13]: 50
Crabgrass, Large plant response rating [4, 14]: 90
Plant response rating, Crabgrass, Large [4, 15]: 30
Plant response rating, Crabgrass, Large [4, 16]: 80
Plant response rating, Morningglory [5, 13]: 100
Morningglory plant response rating [5, 14]: 100
Plant response rating, Morningglory [5, 15]: 0
Plant response rating, Morningglory [5, 16]: 70
Plant response rating, Pigweed [6, 13]: 100
Pigweed plant response rating [6, 14]: 100
Plant response rating, Pigweed [6, 15]: 10
Plant response rating, Pigweed [6, 16]: 50
Plant response rating, Velvetleaf [7, 13]: 100
Velvetleaf plant response rating [7, 14]: 100
Plant response rating, Velvetleaf [7, 15]: 0
Plant response rating, Velvetleaf [7, 16]: 60
Plant response rating, Wheat [8, 13]: 0
Wheat plant response rating [8, 14]: 50
Plant response rating, Wheat [8, 15]: 0
Plant response rating, Wheat [8, 16]: 0
Plant response rating, Barnyardgrass [9, 17]: 0
Barnyardgrass plant response rating [9, 18]: 0
Plant response rating, Ducksalad [10, 17]: 30
Ducksalad plant response rating [10, 18]: 0
Plant response rating, Rice [11, 17]: 0
Rice plant response rating [11, 18]: 0
Plant response rating, Sedge, Umbrella [12, 17]: 20
Sedge, Umbrella plant response rating [12, 18]: 0

CCn1ncc(C(=O)c2cnc(-c3ccccc3)n(-c3ccccc3)c2=O)c1OS(=O)(=O)c1ccc(C)cc1 [Compound 16]
Barnyardgrass plant response rating [1, 19]: 20
Plant response rating, Barnyardgrass [1, 20]: 60
Plant response rating, Barnyardgrass [1, 15]: 0
Plant response rating, Barnyardgrass [1, 21]: 70
Corn plant response rating [2, 19]: 0
Plant response rating, Corn [2, 20]: 20
Plant response rating, Corn [2, 15]: 0
Plant response rating, Corn [2, 21]: 20
Foxtail, Giant plant response rating [3, 19]: 30
Plant response rating, Foxtail, Giant [3, 20]: 70
Plant response rating, Foxtail, Giant [3, 15]: 30
Plant response rating, Foxtail, Giant [3, 21]: 70
Crabgrass, Large plant response rating [4, 19]: 10
Plant response rating, Crabgrass, Large [4, 20]: 40
Plant response rating, Crabgrass, Large [4, 15]: 40
Plant response rating, Crabgrass, Large [4, 21]: 70
Morningglory plant response rating [5, 19]: 10
Plant response rating, Morningglory [5, 20]: 20
Plant response rating, Morningglory [5, 15]: 0
Plant response rating, Morningglory [5, 21]: 0
Pigweed plant response rating [6, 19]: 50
Plant response rating, Pigweed [6, 20]: 70
Plant response rating, Pigweed [6, 15]: 30
Plant response rating, Pigweed [6, 21]: 50
Velvetleaf plant response rating [7, 19]: 70
Plant response rating, Velvetleaf [7, 20]: 100
Plant response rating, Velvetleaf [7, 15]: 0
Plant response rating, Velvetleaf [7, 21]: 40
Wheat plant response rating [8, 19]: 0
Plant response rating, Wheat [8, 20]: 10
Plant response rating, Wheat [8, 15]: 0
Plant response rating, Wheat [8, 21]: 0
Plant response rating, Flood, Barnyardgrass [9, 22]: 10
Plant response rating, Barnyardgrass [9, 23]: 0
Plant response rating, Barnyardgrass [9, 24]: 0
Plant response rating, Barnyardgrass [9, 17]: 0
Plant response rating, Flood, Ducksalad [10, 22]: 75
Plant response rating, Ducksalad [10, 23]: 0
Plant response rating, Ducksalad [10, 24]: 40
Plant response rating, Ducksalad [10, 17]: 75
Plant response rating, Flood, Rice [11, 22]: 10
Plant response rating, Rice [11, 23]: 0
Plant response rating, Rice [11, 24]: 0
Plant response rating, Rice [11, 17]: 0
Plant response rating, Flood, Sedge, Umbrella [12, 22]: 50
Plant response rating, Sedge, Umbrella [12, 23]: 0
Plant response rating, Sedge, Umbrella [12, 24]: 0
Plant response rating, Sedge, Umbrella [12, 17]: 40

O=C1CCCC(O)=C1C(=O)c1cnc(-c2cc(F)c(F)c(F)c2)n(C2CCCCC2)c1=O [Compound 205]
Plant response rating, Barnyardgrass [1, 13]: 90
Barnyardgrass plant response rating [1, 14]: 100
Plant response rating, Barnyardgrass [1, 15]: 0
Plant response rating, Barnyardgrass [1, 16]: 10
Plant response rating, Corn [2, 13]: 0
Corn plant response rating [2, 14]: 20
Plant response rating, Corn [2, 15]: 0
Plant response rating, Corn [2, 16]: 0
Plant response rating, Foxtail, Giant [3, 13]: 40
Foxtail, Giant plant response rating [3, 14]: 90
Plant response rating, Foxtail, Giant [3, 15]: 10
Plant response rating, Foxtail, Giant [3, 16]: 80
Plant response rating, Crabgrass, Large [4, 13]: 60
Crabgrass, Large plant response rating [4, 14]: 90
Plant response rating, Crabgrass, Large [4, 15]: 20
Plant response rating, Crabgrass, Large [4, 16]: 90
Plant response rating, Morningglory [5, 13]: 100
Morningglory plant response rating [5, 14]: 100
Plant response rating, Morningglory [5, 15]: 0
Plant response rating, Morningglory [5, 16]: 60
Plant response rating, Pigweed [6, 13]: 90
Pigweed plant response rating [6, 14]: 100
Plant response rating, Pigweed [6, 15]: 10
Plant response rating, Pigweed [6, 16]: 90
Plant response rating, Velvetleaf [7, 13]: 100
Velvetleaf plant response rating [7, 14]: 100
Plant response rating, Velvetleaf [7, 15]: 10
Plant response rating, Velvetleaf [7, 16]: 80
Plant response rating, Wheat [8, 13]: 0
Wheat plant response rating [8, 14]: 10
Plant response rating, Wheat [8, 15]: 0
Plant response rating, Wheat [8, 16]: 0
